Test results from US11662349B2, “Carbohydrate sensors” (Commonwealth Scientific and Industrial Research Organisation, priority 2017, dated 2023).
Where “and” joins values, the source holds several entries; their conditions need not be identical. Equal values may be shown once.

How the values were obtained:
[1] = biological target: LacB1 sensor, GFP^2-BgaR-RLuc8 fusion protein, SEQ ID NO: 15 (BgaR from Clostridium perfringins strain 13, SEQ ID NO: 1) (Clostridium perfringens, UniProt Q8XMB9); assay: biochemical; assay type: binding
[2] = biological target: LacF1 sensor, His6-CFP-BgaR-YFP fusion protein, SEQ ID NO: 23 (BgaR from Clostridium perfringins strain 13, SEQ ID NO: 1) (Clostridium perfringens, UniProt Q8XMB9); assay type: binding

With `OC[C@H]1OC(O)[C@H](O)[C@@H](O)[C@H]1O` (some centres unmarked) [galactose] the “change in BRET^2 ratio” value [1] was 3% and 13%.
`OC[C@H]1OC(O)[C@H](O)[C@@H](O)[C@@H]1O` (some centres unmarked) [glucose] was tested, and the “change in BRET^2 ratio” value [1] was 9% and 6%.
With `OC[C@H]1O[C@@H](O[C@H]2[C@H](O)[C@@H](O)C(O)O[C@@H]2CO)[C@H](O)[C@@H](O)[C@H]1O` (stereo partly drawn) [lactose, β-D-galactosyl-(1→4)-D-glucose] the “RET ratio in the presence of lactose” value [1] was 0.800±0.003, the “change in BRET^2 ratio” value [1] was “approximately 35%” and the “drop in RET ratio” value [1] was 27%. For the same compound, the EC50 ([1]; EC50 (lactose)) was 12 µM and 21 µM and 11 to 14 µM and 18 to 23 µM, the “RET ratio in the presence of lactose” value [2] was 1.089±0.004 and the “decrease in RET ratio” value [2] was 10%.
For `OC[C@H]1O[C@@H](O[C@@H]2[C@@H](CO)OC(O)(CO)[C@H]2O)[C@H](O)[C@@H](O)[C@H]1O` (stereo partly drawn) [lactulose, 4-O-β-D-galactosyl-D-fructose], the “affinity of LacB1 for lactulose weaker than for lactose” value [1] was “approximately 150 fold”, the “change in BRET^2 ratio” value [1] was “approximately 21%” and the “difference in EC50 between lactose and lactulose” value [1] was 200 fold. For the same compound, the “limit of detection (LOD), lactulose” value [1] was 0.1 mM, the “limit of detection for lactulose higher than for lactose” value [1] was 100 fold and the EC50 ([1]; EC50 (lactulose)) was 2400 ± 200 µM.
